The record followed here is patent US20050197376A1, “Concomitant drugs” (Fujisawa Pharmaceutical Co. Ltd., priority 2004, published 2005).

For this experiment, the system named is type II diabetic patients. Kind of experiment: Concurrent oral administration with sulfonylurea to type II diabetic patients. Type of experiment: in vivo, human. The settings on record: type II diabetic patients on sulfonylureas (glipizide, glyburide or glimepiride); 15 mg/day oral, concurrently with sulfonylurea, plural months.

Consider `CCCCCS(=O)(=O)NC(=O)c1ccc2nc(C)n(Cc3ccc(Cl)cc3Cl)c2c1` [(3), 1-(2,4-dichlorobenzyl)-2-methyl-N-(pentylsulfonyl)-1H-benzimidazole-6-carboxamide], for which the HbAlc decrease result is on record as “not less than 1 % point”.
